Laboratory results published in patent publication US9901573B2, “Compositions, methods, and kits for regulating energy metabolism” (NuSirt Sciences, Inc., priority 2012, dated 2018).
Marks after values point to notes of the source that are not given here.

Legend:
Assay type in all cases: cell-based
C2C12 myotubes [1] = assay: Mitochondrial biogenesis (mitochondrial mass, NAO probe); settings: FIG. 13
Description: Cell Culture: C2C12 and 3T3-L1 preadipocytes (American Type Culture Collection) were plated at a density of 8000 cells/cm^2 (10 cm^2 dish) and grown in Dulbecco's modified eagle's medium (DMEM) containing 10% fetal bovine serum (FBS), and antibiotics (growth medium) at 37° C. in 5% CO2. Confluent 3T3-L1 preadipocytes were induced to differentiate with a standard differentiation medium consisting of DMEM medium supplemented with 10% FBS, 250 nM dexamethasone, 0.5 mM 3-Isobutyl-1-methylxanthine (IBMX) and 1% penicillin-streptomycin. Preadipocytes were maintained in this differentiation medium for 3 days and subsequently cultured in growth medium. Cultures were re-fed every 2-3 days to allow >90% cells to reach fully differentiation before conducting chemical treatment. For differentiation of C2C12 cells, cells were grown to 100% confluence, transferred to differentiation medium (DMEM with 2% horse serum and 1% penicillin-streptomycin), and fed with fresh differentiation medium every day until myotubes were fully formed (3 days). Mitochondrial biogenesis: Mitochondrial biogenesis was assessed as change in mitochondrial mass, as previously described (2). The mitochondrial probe NAO (Invitrogen, Carlsbad, Calif.) was used to analyze mitochondrial mass by fluorescence (excitation 485 nm and emission 520 nm) and quantitative data was obtained with a fluorescence microplate reader (Synergy HT, BioTek Instruments, Winooski, Vt.). The intensity of fluorescence was expressed as arbitrary units per μg protein and normalized to control values within each assay.

3T3-L1 adipocytes = assay: Intracellular Ca2+ by fura-2 imaging in adipocytes
Description: Cell culture: 3T3-L1 pre-adipocytes were incubated at a density of 8000 cells/cm^2 (10 cm^2 dish) and grown in the absence of insulin in Dulbecco's modified Eagle's medium (DMEM) containing 10% FBS and antibiotics (1% penicillin-streptomycin)(adipocyte medium) at 37° C. in 5% CO2 in air. Confluent pre-adipocytes were induced to differentiate with a standard differentiation medium consisting of DMEM-F10 (1:1, vol/vol) medium supplemented with 1% fetal bovine serum (FBS), 250 nM dexamethasone (DEXA), isobutylmethylxanthine (IBMX) (0.5 mM) and antibiotics. Pre-adipocytes were maintained in this differentiation medium for 3 days (unless specifically indicated) and subsequently cultured in adipocyte medium. Cultures were re-fed every 2-3 days to allow 90% cells to reach fully differentiation before treatment.
Intracellular Ca^2+ ([Ca^2+]i): [Ca^2+]i was measured using a fura-2 dual wavelength fluorescence imaging system. Adipocytes were plated and differentiated in 35 mm dishes with glass coverslips (P35G-0-14-C, MatTek Corporation). Prior to [Ca^2+]i measurement, cells were preincubated in serum-free medium overnight and rinsed with Hepes Balanced Salt Solution (HBSS) containing the following components (in mM): NaCl 138, CaCl2 1.8, MgSO4 0.8, NaH2PO4 0.9, NaHCO3 4, glucose 5, glutamine 6, Hepes 20, and bovine serum albumin 1%. Cells were loaded with fura-2 acetoxymethyl ester (AM) (10 μM) in the same buffer for 2 hr at 37° C. in a dark incubator with 5% CO2. To remove extracellular dye, cells were rinsed with HBSS 3 times and then postincubated at room temperature for an additional 1 hr for complete hydrolysis of cytoplasmic fura-2 AM. The dishes with dye-loaded cells were mounted on the stage of Nikon TMS-F fluorescence inverted microscope with a Cohu 4915 CCD camera. Fluorescent images were captured alternatively at excitation wavelength of […] with an emission wavelength of 520 nm. [Ca^2]i was calculated using a standard ratio equation. Each analysis evaluated responses of 8-10 representative whole cells. Images were analyzed with InCytIm2 version 4.62 imaging software (Intracellular Imaging, Cincinnati, Ohio). Images were calibrated using a fura-2 calcium imaging calibration kit (Molecular Probes, Eugene, Oreg.) to create a calibration curve in solution, and cellular calibration was accomplished using digitonin (25 μM) and pH 8.7 Tris-EGTA (100 mM) to measure maximal and minimal [Ca^2+]i levels.

C2C12 myotubes [2] = assay: Fatty acid oxidation (O2 consumption response to palmitate) in myotubes; settings: FIG. 4/5, 24 hours, leucine, valine, isoleucine 0.5 mM, B6 100 nM as pyridoxal phosphate, vs control
Description: Cell Culture: C2C12 and 3T3-L1 preadipocytes (American Type Culture Collection) were plated at a density of 8000 cells/cm^2 (10 cm^2 dish) and grown in Dulbecco's modified eagle's medium (DMEM) containing 10% fetal bovine serum (FBS), and antibiotics (growth medium) at 37° C. in 5% CO2. Confluent 3T3-L1 preadipocytes were induced to differentiate with a standard differentiation medium consisting of DMEM medium supplemented with 10% FBS, 250 nM dexamethasone, 0.5 mM 3-Isobutyl-1-methylxanthine (IBMX) and 1% penicillin-streptomycin. Preadipocytes were maintained in this differentiation medium for 3 days and subsequently cultured in growth medium. Cultures were re-fed every 2-3 days to allow >90% cells to reach fully differentiation before conducting chemical treatment. For differentiation of C2C12 cells, cells were grown to 100% confluence, transferred to differentiation medium (DMEM with 2% horse serum and 1% penicillin-streptomycin), and fed with fresh differentiation medium every day until myotubes were fully formed (3 days). Fatty acid oxidation: Cellular oxygen consumption was measured using a Seahorse Bioscience XF24 analyzer (Seahorse Bioscience, Billerica, Mass.) in 24-well plates at 37° C., as described by Feige et al (1) with slight modifications. Cells were seeded at 40,000 cells per well, differentiated as described above, treated for 24 hours with the indicated treatments, washed twice with non-buffered carbonate-free pH 7.4 low glucose (2.5 mM) DMEM containing carnitine (0.5 mM), equilibrated with 550 μL of the same media in a non-CO2 incubator for 45 minutes, and then inserted into the instrument for 15 minutes of further equilibration, followed by O2 consumption measurement. Three successive baseline measurements at five-minute intervals were taken prior to injection of palmitate (200 μM final concentration). Four successive 5-minute measurements of O2 consumption were then conducted, followed by 10 minute re-equilibration and another 3-4 5-minute measurements. This measurement pattern was then repeated over a 4-6 hour period. Data for each sample were normalized to the pre-palmitate injection baseline for that sample and expressed as % change from that baseline. […] The area under of the curve of O2 consumption change from baseline for each sample was then calculated and used for subsequent analysis.

`CC(C)C[C@H](N)C(=O)O` [Leucine, leucine] was tested, and the “increase in mitochondrial biogenesis (mitochondrial biomass)” value (C2C12 myotubes [1]) was “about 15%”, the “Intracellular Ca2+” value (3T3-L1 adipocytes; Leucine 0.25 mM) was 75.2^b ± nM and the “Intracellular Ca2+” value (3T3-L1 adipocytes; Leucine 0.5 mM) was 83.7^b ± nM. For the same compound, the “increase in fatty acid oxidation” value (C2C12 myotubes [2]) was 73%.
